The numbers were not newly measured in publication PMC3563429 (Journal of the American Chemical Society, 2013), which cites them from elsewhere.

One may read the IC50 as the concentration that gives 50% inhibition.

The subject of the series is human calpain protease 1. Conditions: for inhibitory action against the cysteine protease calpain 1: described in the patent literature; for IC50: read-out: IC50 against human calpain protease 1, previously reported.

In the case of `CCCCCC/C=C\CC(=O)N[C@@H](Cc1ccc(O)cc1)[C@@H](O)CC(=O)N[C@H](C(=O)N[C@@H](CO)[C@@H](O)CC(=O)N[C@H](C(=O)N[C@@H]1C=CC(=O)N[C@@H](C(C)C)C(=O)N(C)[C@@H](Cc2ccc(O)cc2)C(=O)OC1)C(C)C)C(C)C` [Compound 12, thalassospiramide B1], the “inhibitory action against the cysteine protease calpain 1” value is “nanomolar inhibitory action” and the IC50 was 0.08 µM.
On to “Thalassospiramide D1 [Thalassospiramide D1 (15)]”, for which the “inhibitory action against the cysteine protease calpain 1” value is on record as “nanomolar inhibitory action” and the IC50 is 0.039 µM.
